In article PMC7413297 (Journal of immunology (Baltimore, Md. : 1950), 2020):
Read-outs that look alike come from different tables or passages of the source. Ends that are not written are not given here. Peptide text beside a SMILES is read from it.

Biological target: HLA A*02:01 class I molecules (Homo sapiens, UniProt P04439, D140Y/D185E/D98H/E176V/E277Q/G131W/G231S/I119V/I121R/I166T/I218V/L300P/L318F/N151K/N90K/P208A/P217A/Q86G/Q94H/R138H/R169H/T345S)
Experiment: MHC-peptide competitive binding assay
[1] = as standard assay but excluding protease inhibitors
[2] = reducing conditions, 1 mM 2-ME added
[3] = IC50 2-ME, reducing conditions, 1 mM 2-ME added
[4] = IC50 No Protease Inhibitors, as standard assay but excluding protease inhibitors

IC50 No Protease Inhibitors [1] | IC50 2-ME [2] | IC50 [nM] | IC50 [3] [nM] | IC50 [4] [nM] | Compound
– | – | – | 12600 | 3090 | ACDPHSGHFV [reference compound]
604 ng/mL | 1,260 ng/ml | – | – | – | BISSBNPNL
17,100 ng/ml | 13,400 ng/ml | – | – | – | BISSBNPNP
121 ng/mL | 93 ng/mL | – | – | – | BQWGRLWQL
1,047 ng/ml | 618 ng/mL | – | – | – | CISSBNPNL
– | – | 9010 | 907 | 1010 | HMTEVVRRC [reference compound]
733 ng/mL | 1,547 ng/ml | – | – | – | ILBGTBLIV
839 ng/mL | 885 ng/mL | – | – | – | ILCGTBLIV

Continued, compound first:

Compound | IC50 No Protease Inhibitors [1] | IC50 2-ME [2] | IC50 [nM] | IC50 [3] [nM] | IC50 [4] [nM]
1LBETBLIV | 14 ng/mL | 24 ng/mL | – | – | –
CC[C@H](C)[C@H](N)C(=O)N[C@@H](CC(C)C)C(=O)N[C@@H](CS)C(=O)N[C@@H](CCC(=O)O)C(=O)N[C@H](C(=O)N[C@@H](CS)C(=O)N[C@@H](CC(C)C)C(=O)N[C@H](C(=O)N[C@H](C(=O)O)C(C)C)[C@@H](C)CC)[C@@H](C)O [reference compound] (H-ILCETCLIV-OH) | – | – | 458 | 304 | 323
CC[C@H](C)[C@H](N)C(=O)N[C@@H](CC(C)C)C(=O)N[C@@H](CS)C(=O)NCC(=O)N[C@H](C(=O)N[C@@H](CS)C(=O)N[C@@H](CC(C)C)C(=O)N[C@H](C(=O)N[C@H](C(=O)O)C(C)C)[C@@H](C)CC)[C@@H](C)O [reference compound] (H-ILCGTCLIV-OH) | – | – | 206 | 244 | 582
BISSCNPNL | 573 ng/mL | 250 ng/mL | – | – | –
CQWGRLWQL [reference compound] | – | – | 1200 | 130 | 952
ILBETCLIV | 58 ng/mL | 82 ng/mL | – | – | –
ILCETBLIV | 104 ng/mL | 93 ng/mL | – | – | –
RLPRIFBSB | 7.2 ng/mL | 14 ng/mL | – | – | –
RLPRIFCSB | 11 ng/mL | 27 ng/mL | – | – | –
SCSRAIPQV [reference compound] | – | – | 1530 | 207 | 551
SCSRAVPQV [reference compound] | – | – | 12300 | 2480 | 7350
SLLMWITQB | 94 ng/mL | – | – | – | –
VLPDVFIRB | 3.3 ng/mL | 2.5 ng/mL | – | – | –
VLPDVFIRC [reference compound] | – | – | 454 | 30.2 | 121
